Values of other authors, collected in US20130331400A1, “METHOD FOR PRODUCING INDIGO-PLANT LEAF EXTRACT” (SUNSTAR INC.,, priority 2011, published 2013).

Experiments:
[1] = system: type IV allergic reactions; settings: reported in PTL 2
[2] = system: fungi of the genus Malassezia; settings: reported in PTL 1
[3] = general statement in background art

For `O=C1c2ccccc2-n2c1nc1ccccc1c2=O` [tryptanthrin], the “Effect on type IV allergic reactions (in words)” value [1] is given as “effect of suppressing type IV allergic reactions”, the “Antibacterial action against fungi of the genus Malassezia (in words)” value [2] is given as “has an antibacterial action against fungi of the genus Malassezia” and the “Light stability of tryptanthrin (in words)” value [3] is given as “poor light stability”.
